Columns and labels:
κ opioid receptor = κ opioid receptor (Homo sapiens (Human), UniProt P41145); assay: κ-opioid receptor [35S]GTPγS functional assay, U-2 OS cells; format: biochemical; settings: κ GTP; for EC50: read-out: Activity Response κ EC50 (nM) [mean ± SEM]; for Emax: relative to U69,593, read-out: Activity Response κ Emax (%)
Protocol: Membranes from HEK-293 cells, CHO or U-2 OS cells expressing the recombinant human kappa opioid receptor (κ) were prepared by lysing cells in ice cold hypotonic buffer (2.5 mM MgCl2, 50 mM HEPES, pH 7.4) (10 mL/10 cm dish) followed by homogenization with a tissue grinder/Teflon pestle. Membranes were collected by centrifugation at 30,000×g for 15 min at 4° C. and pellets were resuspended in hypotonic buffer to a final concentration of 1-3 mg/mL. Protein concentrations were determined using the BioRad protein assay reagent with bovine serum albumen as standard. Aliquots of κ receptor membranes were stored at −80° C.
Functional [^35S]GTPγS binding assays were conducted as follows. κ opioid receptor membrane solution was prepared by sequentially adding final concentrations of 0.026 μg/μl κ membrane protein (in-house), 10 μg/mL saponin, 3 μM GDP and 0.20 nM [^35S]GTPγS to binding buffer (100 mM NaCl, 10 mM MgCl2, 20 mM HEPES, pH 7.4) on ice. The prepared membrane solution (190 μl/well) was transferred to 96-shallow well polypropylene plates containing 10 μl of 20× concentrated stock solutions of agonist prepared in DMSO. Plates were incubated for 30 min at a temperature of about 25° C. with shaking. Reactions were terminated by rapid filtration onto 96-well Unifilter GF/B filter plates (Perkin Elmer, Shelton, Conn.) using a 96-well tissue harvester (Packard) and followed by three filtration washes with 200 μl ice-cold binding buffer (10 mM NaH2PO4, 10 mM Na2HPO4, pH 7.4). Filter plates were subsequently dried at 50° C. for 2-3 hours. Fifty μl/well scintillation cocktail (Perkin Elmer, Shelton, Conn.) was added and plates were counted in a Packard Top-Count for 1 min/well.
κ GTP EC50 is the concentration of a compound providing 50% of the maximal response for the compound at a κ receptor.
κ GTP Emax (%) is the maximal effect elicited by a compound relative to the effect elicited by U69,593.
In TABLE 3, binding affinity of certain Compounds of the Invention to the μ- and κ-opioid receptors was determined as described above. In TABLE 4, activity response of certain Compounds of the Invention to the μ- and κ-opioid receptors was determined as described above for functional assays using HEK-293 cells. In TABLE 5, activity response of certain Compounds of the Invention to the μ- and κ-opioid receptors was determined as described above using U-2 OS cells.

μ-opioid receptors = μ-opioid receptors (Homo sapiens (Human), UniProt P35372); assay: μ-opioid receptor [35S]GTPγS functional assay, U-2 OS cells; format: biochemical; settings: μ GTP; for EC50: read-out: Activity Response μ EC50 (nM) [mean ± SEM]; for Emax: relative to DAMGO, read-out: Activity Response μ Emax (%)
Protocol: [^35S]GTPγS functional assays were conducted using freshly thawed μ-receptor membranes prepared from a cell line expressing recombinant μ opioid receptor in a HEK-293, CHO or U-2 OS cell background or purchased from a commercial source (Perkin Elmer, Shelton, Conn.; or DiscovRx, Fremont, Calif.). Assay reactions were prepared by sequentially adding the following reagents to binding buffer (100 mM NaCl, 10 mM MgCl2, 20 mM HEPES, pH 7.4) on ice (final concentrations indicated): membrane protein (0.026 mg/mL), saponin ([…]), GDP ([…]) and [^35S]GTPγS (0.20 nM; Perkin Elmer, Shelton, Conn.). The prepared membrane solution (190 μl/well) was transferred to 96-shallow well polypropylene plates containing 10 μl of 20× concentrated stock solutions of the agonist [D-Ala^2, N-methyl-Phe^4 Gly-ol^5]-enkephalin (DAMGO) prepared in dimethyl sulfoxide (DMSO). Plates were incubated for 30 min at about 25° C. with shaking. Reactions were terminated by rapid filtration onto 96-well Unifilter GF/B filter plates (Perkin Elmer, Shelton, Conn.) using a 96-well tissue harvester (Perkin Elmer, Shelton, Conn.) followed by three filtration washes with 200 μl of ice-cold wash buffer (10 mM NaH2PO4, 10 mM Na2HPO4, pH 7.4). Filter plates were subsequently dried at 50° C. for 2-3 hours. BetaScint scintillation cocktail (Perkin Elmer, Shelton, Conn.) was added (50 μl/well) and plates were counted using a Packard Top-Count for 1 min/well. Data were analyzed using the sigmoidal dose-response curve fitting functions in GraphPad PRISM v. 3.0, or an in-house function for non-linear, sigmoidal dose-response curve-fitting.
μ GTP EC50 is the concentration of a compound providing 50% of the maximal response for the compound at a μ-opioid receptor.
μ GTP Emax (%) is the maximal effect elicited by a compound relative to the effect elicited by DAMGO, a standard μ agonist. Generally, the μ GTP Emax (%) value measures the efficacy of a compound to treat or prevent pain or other Conditions.
The following tables provide results on the efficacy of binding and activity response of exemplified Compounds of the Invention at the μ- and κ-opioid receptors. In TABLE 3, binding affinity of certain Compounds of the Invention to the μ- and κ-opioid receptors was determined as described above. In TABLE 4, activity response of certain Compounds of the Invention to the μ- and κ-opioid receptors was determined as described above for functional assays using HEK-293 cells. In TABLE 5, activity response of certain Compounds of the Invention to the μ- and κ-opioid receptors was determined as described above using U-2 OS cells.

Row | SMILES | EC50 (κ opioid receptor) | Emax (κ opioid receptor) | EC50 (μ-opioid receptors) | Emax (μ-opioid receptors)
1 | O=C1C[C@]23CCN(CC4CC4)[C@H](Cc4ccc(O)cc42)[C@]3(O)C[C@@H]1CC1CCCCC1 [Compound 70, (4bR,7S,8aS,9R)-7-(cyclohexylmethyl)-11-(cyclopropylmethyl)-3,8a-dihydroxy-8,8a,9,10-tetrahydro-5H-9,4b-(epiminoethano)phenanthren-6(7H)-one] | 4.01 ± 0.47 nM | 106 ± 3.8% | > 200000 nM | 3.5%
2 | O=C1C[C@]23CCN(CC4CC4)[C@H](Cc4ccc(OCc5ccccc5)cc42)[C@]3(O)C[C@@H]1CCO [Compound 58, (4bR,7S,8aS,9R)-3-(benzyloxy)-11-(cyclopropylmethyl)-8a-hydroxy-7-(2-hydroxyethyl)-8,8a,9,10-tetrahydro-5H-9,4b-(epiminoethano)phenanthren-6(7H)-one] | 839 ± 9.9 nM | 96 ± 6.35% | 787 ± 242 nM | 43.7 ± 3.93%
3 | CC(C)C[C@H]1C[C@@]2(O)[C@H]3Cc4ccc(O)cc4[C@@]2(CCN3CC2CC2)CC1=O [Compound 69, (4bR,7S,8aS,9R)-11-(cyclopropylmethyl)-3,8a-dihydroxy-7-isobutyl-8,8a,9,10-tetrahydro-5H-9,4b-(epiminoethano)phenanthren-6(7H)-one] | 9.52 ± 1.41 nM | 95.2 ± 1.89% | > 200000 nM | 2%
4 | O=C1C[C@]23CCN(CC4CC4)[C@H](Cc4ccc(O)cc42)[C@]3(O)C[C@@H]1Cc1ccccc1 [Compound 71, (4bR,7S,8aS,9R)-7-benzyl-11-(cyclopropylmethyl)-3,8a-dihydroxy-8,8a,9,10-tetrahydro-5H-9,4b-(epiminoethano)phenanthren-6(7H)-one] | 5.6 ± 0.72 nM | 109 ± 5.45% | 6.76 ± 1.73 nM | 17.7 ± 0.88%
5 | CCC(=O)N[C@H]1C[C@@]2(O)[C@H]3Cc4ccc(O)cc4[C@@]2(CCN3CC2CC2)CC1=O [Compound 29, N-((4bR,7S,8aS,9R)-11-(cyclopropylmethyl)-3,8a-dihydroxy-6-oxo-6,7,8,8a,9,10-hexahydro-5H-9,4b-(epiminoethano)phenanthren-7-yl)propionamide] | 14.6 ± 1.86 nM | 98.7 ± 5.21% | > 200000 nM | 7.25 ± 1.89%
6 | CCC(C)C[C@H]1C[C@@]2(O)[C@H]3Cc4ccc(O)cc4[C@@]2(CCN3CC2CC2)CC1=O (stereo partly drawn) [Compound 66, (4bR,7S,8aS,9R)-11-(cyclopropylmethyl)-3,8a-dihydroxy-7-(2-methylbutyl)-8,8a,9,10-tetrahydro-5H-9,4b-(epiminoethano)phenanthren-6(7H)-one] | 7.57 ± 1.14 nM | 102 ± 1.33% | > 200000 nM | 2.5%
7 | COc1ccc2c(c1)[C@]13CCN(C)[C@H](C2)[C@]1(O)C[C@H](CC(=O)N1CCCC1)C(=O)C3 [Compound 77, (4bR,7R,8aS,9R)-8a-hydroxy-3-methoxy-11-methyl-7-(2-oxo-2-(pyrrolidin-1-yl)ethyl)-8,8a,9,10-tetrahydro-5H-9,4b-(epiminoethano)phenanthren-6(7H)-one] | > 200000 nM | 49 ± 9.45% | 17600 ± 3650 nM | 77 ± 2.08%
8 | CC[C@H](C)C(=O)N[C@H]1C[C@@]2(O)[C@H]3Cc4ccc(O)cc4[C@@]2(CCN3CC2CC2)CC1=O [Compound 37, (S)-N-((4bR,7S,8aS,9R)-11-(cyclopropylmethyl)-3,8a-dihydroxy-6-oxo-6,7,8,8a,9,10-hexahydro-5H-9,4b-(epiminoethano)phenanthren-7-yl)-2-methylbutanamide] | 42.1 ± 7.56 nM | 71.3 ± 5.7% | > 200000 nM | 6 ± 1.53%
9 | CCCC[C@H]1C[C@@]2(O)[C@H]3Cc4ccc(O)cc4[C@@]2(CCN3CC2CC2)CC1=O [Compound 67, (4bR,7S,8aS,9R)-7-butyl-11-(cyclopropylmethyl)-3,8a-dihydroxy-8,8a,9,10-tetrahydro-5H-9,4b-(epiminoethano)phenanthren-6(7H)-one] | 3 ± 0.12 nM | 101 ± 1.73% | > 200000 nM | 2%
10 | CN1CC[C@]23CC(=O)[C@@H](CC(=O)N4CCC(O)CC4)C[C@@]2(O)[C@H]1Cc1ccc(O)cc13 [Compound 81, (4bR,7R,8aS,9R)-3,8a-dihydroxy-7-(2-(4-hydroxypiperidin-1-yl)-2-oxoethyl)-11-methyl-8,8a,9,10-tetrahydro-5H-9,4b-(epiminoethano)phenanthren-6(7H)-one] | 6510 ± 1190 nM | 34 ± 2.65% | 1000 ± 276 nM | 84.3 ± 3.84%
11 | CC(C)CC(=O)N[C@H]1C[C@@]2(O)[C@H]3Cc4ccc(O)cc4[C@@]2(CCN3CC2CC2)CC1=O [Compound 33, N-((4bR,7S,8aS,9R)-11-(cyclopropylmethyl)-3,8a-dihydroxy-6-oxo-6,7,8,8a,9,10-hexahydro-5H-9,4b-(epiminoethano)phenanthren-7-yl)-3-methylbutanamide] | 36.1 ± 3.14 nM | 52 ± 4.93% | > 200000 nM | 2.5%
12 | COc1ccc2c(c1)[C@]13CCN(CC4CC4)[C@H](C2)[C@]1(O)C[C@H](O)C(=O)C3 [Compound 25, (4bR,7S,8aS,9R)-11-(cyclopropylmethyl)-7,8a-dihydroxy-3-methoxy-8,8a,9,10-tetrahydro-5H-9,4b-(epiminoethano)phenanthren-6(7H)-one] | 876 ± 18.8 nM | 106 ± 3.28% | 578 ± 91.8 nM | 36 ± 3.51%
13 | COc1ccc2c(c1)[C@]13CCN(CC4CC4)[C@H](C2)[C@]1(O)C/C(=C\CC(C)C)C(=O)C3 [Compound 62, (4bR,8aS,9R,E)-11-(cyclopropylmethyl)-8a-hydroxy-3-methoxy-7-(3-methylbutylidene)-8,8a,9,10-tetrahydro-5H-9,4b-(epiminoethano)phenanthren-6(7H)-one] | 3070 ± 233 nM | 62.7 ± 4.37% | > 200000 nM | 27.5%
14 | COc1ccc2c(c1)[C@]13CCN(C)[C@H](C2)[C@]1(O)C[C@H](CC(=O)N1CCCCC1)C(=O)C3 [Compound 76, (4bR,7R,8aS,9R)-8a-hydroxy-3-methoxy-11-methyl-7-(2-oxo-2-(piperidin-1-yl)ethyl)-8,8a,9,10-tetrahydro-5H-9,4b-(epiminoethano)phenanthren-6(7H)-one] | > 200000 nM | 47.7 ± 2.19% | 16700 ± 2270 nM | 61.7 ± 1.86%
15 | CC(C)CCCC(=O)N[C@H]1C[C@@]2(O)[C@H]3Cc4ccc(O)cc4[C@@]2(CCN3CC2CC2)CC1=O [Compound 31, N-((4bR,7S,8aS,9R)-11-(cyclopropylmethyl)-3,8a-dihydroxy-6-oxo-6,7,8,8a,9,10-hexahydro-5H-9,4b-(epiminoethano)phenanthren-7-yl)-5-methylhexanamide] | 2.59 ± 0.14 nM | 90.7 ± 6.57% | 9.65 ± 0.22 nM | 73.7 ± 2.6%

— patent publication US9388162B2, “Substituted morphinans and the use thereof” (Purdue Pharma L.P., priority 2012, dated 2016)
